# Columns and labels:
# HT29 = assay: NCI-60 screening, one-dose (10 µM) and five-dose, SRB; format: cell-based, human
# MOLT-4 = assay: as above; format: cell-based, human
# OVCAR-3 = assay: as above; format: cell-based
# HOP-92 = assay: as above; format: cell-based, human
# OVCAR-4 = assay: as above; format: cell-based, human
# TK-10 = assay: as above; format: cell-based, human
# HCC-2998 = assay: as above; format: cell-based, human
# NCI-H23 = assay: as above; format: cell-based, human
# T-47D = assay: as above; format: cell-based, human; conditions: five-dose
# HCT-116 = assay: as above; format: cell-based, human; conditions: Homo sapiens
# SK-MEL-5 = assay: as above; format: cell-based, human
# [1] = system: 60 human cancer cell lines; assay: NCI-60 screening, full panel (mean growth, MID a, ranges over all lines)
# SR = assay: NCI-60 screening, one-dose (10 µM) and five-dose, SRB; format: cell-based, human; conditions: five-dose
# MDA-MB-435 = assay: as above; format: cell-based; conditions: MDA-MB-435
# A498 = assay: as above; format: cell-based
# [2] = Homo sapiens, HT-29, five-dose, HT29
# [3] = Homo sapiens, five-dose, MOLT-4
# [4] = Homo sapiens, five-dose, OVCAR-3
# [5] = Homo sapiens, five-dose, HOP-92
# [6] = Homo sapiens, five-dose, OVCAR-4
# [7] = Homo sapiens, five-dose, HCC-2998
# [8] = Homo sapiens, five-dose, NCI-H23
# [9] = Homo sapiens, five-dose, SK-MEL-5
structure (smiles),measurement,setting,value
"Cc1nc(SCC(=O)N2CCN(c3cc4c(cc3F)c(=O)c(C(=O)O)cn4C3CC3)CC2)sc1C(=O)/C=C/c1cccc(Cl)c1 [Compound 4b, (E)-7-(4-(2-((5-(3-(3-Chlorophenyl)acryloyl)-4-methylthiazol-2-yl)thio)acetyl)piperazin-1-yl)-1-cyclopropyl-6-fluoro-4-oxo-1,4-dihydroquinoline-3-carboxylic Acid]",activity at 10 µM,"HT29; Homo sapiens, HT-29, 10 μM, HT29, Colon Cancer, read-out: Growth percentage",24.4%
same,GI50,HT29; [2],> 100 µM
same,IC50,HT29; [2],> 100 µM
same,CC50,"HT29; Homo sapiens, HT-29, five-dose, HT29, read-out: LC50 (the source's name)",> 100 µM
same,TGI,"HT29; five-dose, HT29",100.0 µM
same,activity at 10 µM,"MOLT-4; Homo sapiens, 10 μM, MOLT-4, Leukemia, read-out: Growth percentage",66.1%
same,GI50,MOLT-4; [3],12.9 µM
same,IC50,MOLT-4; [3],21.9 µM
same,LC50 (concentration killing 50% of cells),MOLT-4; [3],56.2 µM
same,TGI,"MOLT-4; five-dose, MOLT-4",26.9 µM
same,activity at 10 µM,"OVCAR-3; Homo sapiens, 10 μM, OVCAR-3, Ovarian Cancer, read-out: Growth percentage",13.9%
same,GI50,OVCAR-3; [4],22.9 µM
same,IC50,OVCAR-3; [4],41.7 µM
same,CC50,"OVCAR-3; Homo sapiens, five-dose, OVCAR-3, read-out: LC50 (the source's name)",> 100 µM
same,TGI,"OVCAR-3; five-dose, OVCAR-3",52.5 µM
same,activity at 10 µM,"HOP-92; Homo sapiens, 10 μM, HOP-92, Non-Small-Cell Lung Cancer, read-out: Growth percentage",101%
same,GI50,HOP-92; [5],44.7 µM
same,IC50,HOP-92; [5],> 100 µM
same,LC50 (concentration killing 50% of cells),HOP-92; [5],> 100 µM
same,TGI,"HOP-92; five-dose, HOP-92",100.0 µM
same,activity at 10 µM,"OVCAR-4; Homo sapiens, 10 μM, OVCAR-4, Ovarian Cancer, read-out: Growth percentage",106%
same,GI50,OVCAR-4; [6],> 100 µM
same,IC50,OVCAR-4; [6],> 100 µM
same,CC50,"OVCAR-4; Homo sapiens, five-dose, OVCAR-4, read-out: LC50 (the source's name)",> 100 µM
same,TGI,"OVCAR-4; five-dose, OVCAR-4",100.0 µM
same,activity at 10 µM,"TK-10; Homo sapiens, 10 μM, TK-10, Renal Cancer, read-out: Growth percentage",108%
same,GI50,"TK-10; Homo sapiens, five-dose, TK-10",> 100 µM
same,IC50,"TK-10; Homo sapiens, five-dose, TK-10",> 100 µM
same,CC50,"TK-10; Homo sapiens, five-dose, TK-10, read-out: LC50 (the source's name)",> 100 µM
same,TGI,"TK-10; five-dose, TK-10",100.0 µM
same,activity at 10 µM,"HCC-2998; Homo sapiens, 10 μM, HCC-2998, Colon Cancer, read-out: Growth percentage",25.6%
same,GI50,HCC-2998; [7],1.2 µM
same,IC50,HCC-2998; [7],2.2 µM
same,TGI,"HCC-2998; five-dose, HCC-2998",2.9 µM
same,activity at 10 µM,"NCI-H23; Homo sapiens, 10 μM, NCI-H23, Non-Small-Cell Lung Cancer, read-out: Growth percentage",54%
same,GI50,NCI-H23; [8],> 100 µM
same,IC50,NCI-H23; [8],> 100 µM
same,LC50 (50% lethal concentration),NCI-H23; [8],> 100 µM
same,TGI,"NCI-H23; five-dose, NCI-H23",100.0 µM
same,GI50,"T-47D; Homo sapiens, T47D",> 100 µM
same,IC50,"T-47D; Homo sapiens, T47D",> 100 µM
same,CC50,"T-47D; Homo sapiens, T47D, read-out: LC50 (the source's name)",> 100 µM
same,TGI,T-47D,100.0 µM
same,activity at 10 µM,"HCT-116; HCT-116, 10 μM, HCT-116, Colon Cancer, read-out: Growth percentage",2.8%
same,GI50,"HCT-116; five-dose, HCT-116",0.2 µM
same,IC50,"HCT-116; five-dose, HCT-116",0.3 µM
same,activity at 10 µM,"SK-MEL-5; Homo sapiens, 10 μM, SK-MEL-5, Melanoma, read-out: Growth percentage",50.3%
same,GI50,SK-MEL-5; [9],21.9 µM
same,IC50,SK-MEL-5; [9],> 100 µM
same,CC50,"SK-MEL-5; Homo sapiens, five-dose, SK-MEL-5, read-out: LC50 (the source's name)",> 100 µM
same,TGI,"SK-MEL-5; five-dose, SK-MEL-5",100.0 µM
same,CC50,"[1]; Homo sapiens, read-out: LC50",0.6 to 100 µM
same,activity at 10 µM,"[1]; Homo sapiens, read-out: Mean growth percentage",49.6%
same,Full-panel MG-MID,[1]; mean sensitivity across all cell lines in the panel,70.3 µM
same,GI50,SR; Homo sapiens,1.8 µM
same,IC50,SR; Homo sapiens,3.2 µM
same,CC50,"SR; Homo sapiens, read-out: LC50 (the source's name)",9.1 µM
same,TGI,SR,4.1 µM
same,GI50,MDA-MB-435; Homo sapiens,3.5 µM
same,IC50,MDA-MB-435; Homo sapiens,7.4 µM
same,CC50,"MDA-MB-435; Homo sapiens, five-dose, read-out: LC50 (the source's name)",> 100 µM
same,TGI,MDA-MB-435; five-dose,52.5 µM
same,activity at 10 µM,"A498; Homo sapiens, A498, 10 μM, A498, Renal Cancer, read-out: Growth percentage",36%
same,GI50,"A498; Homo sapiens, five-dose, A498",> 100 µM
same,IC50,"A498; Homo sapiens, five-dose, A498",> 100 µM
same,CC50,"A498; Homo sapiens, five-dose, A498, read-out: LC50 (the source's name)",> 100 µM
same,TGI,"A498; five-dose, A498",100.0 µM

# From PMC12655637, “Design, Synthesis, and Mechanistic Study of Novel Ciprofloxacin/Thiazole Chalcone Hybrids as Potential Anticancer Agents” (Pharmaceuticals, 2025)
